Measurements reported in US20100292316A1, “IMPROVED THERAPEUTIC METHODS AND COMPOSITIONS COMPRISING CHROMAN RING COMPOUNDS” (Research Development Foundation, priority 2007, published 2010).

System: MDA-MB-435 human breast cancer cells
Test: DNA microarray gene expression after α-TEA treatment
Format: cell-based
Parameters: scale not given here
Settings: MDA-MB-435, 40 μM, 12 h
Experimental: In order to identify genes that are involved in α-TEA induced apoptosis in cancer cells the gene expression levels in MDA-MB-435 human breast cancer cells were analyzed after treatment with α-TEA. The MDA-MB-435 cell line is an estrogen-receptor negative/estrogen-nonresponsive epithelial cell line isolated from the pleural effusions of a human with breast cancer (Price et al., 1990). DNA microarray data obtained from treatment of MDA-MB-435 cells with 40 μM α-TEA for 12 h identified approximately 400 genes that gave consistent responses to α-TEA treatment. Genes that passed a minimum quality control threshold were analyzed using online software (The Database for Annotation, Visualization and Integrated Discovery (DAVID)).
MDA-MB-435 cells were cultured in MEM with Earle's balanced salts (Life Technologies, Inc., Grand Island, N.Y.) supplemented with 5% FBS (Hyclone Laboratories, Logan, Utah) plus 2 mM glutamine, 100 μg/ml streptomycin, 100 IU/ml penicillin, 1×(v/v) nonessential amino acids, 2×(v/v) MEM vitamins, and 1 mM sodium pyruvate (Sigma).
Messenger RNA was isolated from the treated MDA-MB-435 cells (3×150 mm dishes) using the FastTrack 2.0 kit (Invitrogen) according to the manufacturer's instructions. First, 15 ml of lysis buffer was added into the cell pellets and mixed thoroughly. The cell lysates were incubated in 45° C. for 45 min with intermittent inversion. Then, 950 μl of 5 M NaCl stock solution was added and mixed thoroughly. Any remaining DNA was sheared by passing the lysates 3 times through a sterile plastic syringe fitted with a 21 gauge needle. Next, the calculated amount of oligo-dT cellulose was added to each sample and allowed to swell for 2 minutes. The tube was rocked gently in a horizontal position for 60-90 minutes at room temperature. The oligo-dT slurry was centrifuged at 4000 rpm for 5 minutes at room temperature, the supernatant was carefully removed from the resin bed. The oligo-dT cellulose was then resuspended in 20 ml of Binding Buffer by vortexing and centrifuged at 4000 rpm for 5 minutes at room temperature, the binding buffer was removed from the resin bed; this step was repeated with 10 ml of binding buffer. The oligo-dT cellulose was washed three times in 10 ml of Low Salt Wash Buffer and centrifuged. The resulting oligo-dT cellulose was resuspended in 800 μl of Low Salt Wash Buffer using a 1 ml pipette tip with a cut-end and quickly transferred to a spin column seated in a microcentrifuge tube. The column was centrifuged at 1000 rcf (about 3000 rpm on a typical microcentrifuge) for 10 seconds at room temperature and the flow-through liquid was discarded. The transfer and centrifugation steps were repeated until all of the oligo-dT cellulose was in the spin column. Then, the spin column containing the oligo-dT cellulose was placed into a clean microcentrifuge tube. The oligo-dT cellulose was resuspended in 200 μl of preheated Elution Buffer (65° C.) using a 200 μl cut-end pipette tip to gently swirl the cellulose, without puncturing the underlying spin column membrane. The column was allowed to stand for 2 minutes at room temperature and then centrifuged at 1000 rcf for 30 seconds at room temperature. This step was repeated with 200 μl of heated Elution Buffer. Then, 40 μl of 3 M sodium acetate and 1 ml of 95% ethanol were added into the combined 400 μl eluent which contained the mRNA and mixed thoroughly. The mRNA mixture was stored at −80° C. overnight. Thenext day, the mixture was thawed and centrifuged at 14,000 rpm in a microcentrifuge for 15 minutes at 4° C., the ethanol was then carefully removed from the mRNA pellet. The mRNA was washed with 70% ethanol once more and resuspended in 20 μl of Elution Buffer (heated as before). […]

## Cc1c(C)c2c(c(C)c1OCC(=O)O)CC[C@@](C)(CCC[C@H](C)CCC[C@H](C)CCCC(C)C)O2 [α-TEA]
Clone IMAGE: 5311129, mRNA, AI362218
  Average level: −0.8568
EST, AI201652
  Average level: −0.7242
Homo sapiens transcribed sequence with strong similarity to protein pdb: 1BGM, AA779865
  Average level: −0.735
Homo sapiens transcribed sequences, R55747
  Average level: −0.756
MRNA full length insert cDNA clone EUROIMAGE 200999, N54993
  Average level: −0.698
Transcribed sequences, H99855
  Average level: −0.8377
Gene AGPAT3, R61733
  Average level: −0.743
Gene AGTRAP, AA152101
  Average level: −0.574
Gene AKR1C2, AI924357
  Average level: −0.865
Gene AMD1, R82299
  Average level: −0.758
Gene ATOX1, AA418755
  Average level: −0.898
Gene ATP5G1, AA046701
  Average level: −0.6558
Gene BAT3, AA598629
  Average level: −0.5502
Gene BST2, AA485371
  Average level: −0.5935
Gene C7orf38, AA452899
  Average level: −0.6558
Gene C9orf58, H48148
  Average level: −0.5662
Gene C13orf8, AA463267
  Average level: −0.6892
Gene C14orf24, AA035549
  Average level: −0.6602
Gene C16orf34, AA045658
  Average level: −0.7252
Gene CDCA2, AI248208
  Average level: −0.719
Gene CHD9, R81880
  Average level: −0.6642
Gene CLCN3, H69811
  Average level: −0.6208
Gene COX7B, AA629999
  Average level: −0.8798
Gene CRABP1, AA421218
  Average level: −0.7923
Gene CRTAP, AA490280
  Average level: −0.7943
Gene CTNNB1, AW058504
  Average level: −0.59
Gene CUGBP2, AA047257
  Average level: −0.8218
Gene CXXC5, R63735
  Average level: −0.8002
Gene D4ST1, AA922082
  Average level: −0.6567
Gene DAG1, AA496691
  Average level: −0.8377
Gene DCT, N27147
  Average level: −0.8518
Gene DEPDC6, AA621364
  Average level: −0.93
Gene DHCR24, AA482324
  Average level: −0.8912
Gene DPY19L2, AA134696
  Average level: −0.7558
Gene EPHB2, W72792
  Average level: −0.6663
Gene ERBB3, AA664212
  Average level: −0.864
Gene ETFB, AI364521
  Average level: −0.6326
Gene FAM83D, R96941
  Average level: −0.5566
Gene FBXL13, AA676859
  Average level: −0.8802
Gene FLJ12973, AI220472
  Average level: −0.7147
Gene FLJ21901, AI392678
  Average level: −0.8782
Gene FZD4, AA677200
  Average level: −0.765
Gene GFER, AA465021
  Average level: −0.5873
Gene GGH, AA455800
  Average level: −0.8048
Gene GNG2, N26108
  Average level: −0.9006
Gene HBS1L, AI003293
  Average level: −0.6832
Gene HNRPM, AA504272
  Average level: −0.6512
Gene HSBP1, AA481263
  Average level: −0.735
Gene IFT122, R97234
  Average level: −0.585
Gene ITGB8, AI246160
  Average level: −0.7288
Gene KIAA0664, AI363909
  Average level: −0.8538
Gene LGALS13, AA706870
  Average level: −0.8452
Gene LOC151162, H79970
  Average level: −0.6815
Gene LOC286334, AA425105
  Average level: −0.8562
Gene LRRK2, AA283609
  Average level: −0.8566
Gene LTBP3, R60197
  Average level: −0.6094
Gene MAF1, AA598994
  Average level: −0.8305
Gene MAN1A2, R22905
  Average level: −0.8387
Gene MGA, AA011551
  Average level: −0.74
Gene MGC4692, AA455039
  Average level: −0.7943
Gene MLANA, N26562
  Average level: −0.551
Gene MVK, R06716
  Average level: −0.673
Gene MYEF2, H96671
  Average level: −0.6864
Gene MYO5A, H20809
  Average level: −0.6754
Gene NETO2, AA456821
  Average level: −0.6854
Gene NOV, AW008840
  Average level: −0.7034
Gene NQO1, AA455538
  Average level: −0.8166
Gene NUPL1, AA158352
  Average level: −0.8132
Gene NUPL2, R96358
  Average level: −0.7312
Gene NUSAP1, AA620485
  Average level: −0.617
Gene OVOS2, AA600184
  Average level: −0.9275
Gene PCDHB16, AI218958
  Average level: −0.7648
Gene PFKFB2, R16146
  Average level: −0.6214
Gene PLEKHF2, AA886792
  Average level: −0.8846
Gene SCD, R00707
  Average level: −0.8732
Gene SFRS2, AA454585
  Average level: −0.7076
Gene SGCD, AA479286
  Average level: −0.8855
Gene SLC26A2, AA704222
  Average level: −0.9114
Gene SLC44A1, R59173
  Average level: −0.6684
Gene SLC44A1, T61913
  Average level: −0.6626
Gene SNX12, AA629796
  Average level: −0.611
Gene SOS1, H64324
  Average level: −0.6138
Gene STARD7, R37351
  Average level: −0.7862
Gene TBC1D1, R32437
  Average level: −0.8948
Gene TBC1D16, AI431804
  Average level: −0.9208
Gene TMPO, H21943
  Average level: −0.7848
Gene TMPO, T63980
  Average level: −0.7846
Gene TNFRSF21, AA490494
  Average level: −0.8622
Gene TNS3, T74023
  Average level: −0.8212
Gene TOP2A, AA504348
  Average level: −0.7142
Gene TREX1, AA279658
  Average level: −0.861
Gene TRIM2, AA464935
  Average level: −0.922
Gene TSHZ1, AA426522
  Average level: −0.865
Gene TWSG1, N91767
  Average level: −0.6
Gene USP40, H29211
  Average level: −0.8932
Gene VAV3, H10045
  Average level: −0.9075
Gene VPRBP, AA644335
  Average level: −0.702
Gene VPS13D, AI005042
  Average level: −0.7177
Gene WASPIP, AA283699
  Average level: −0.8604
Gene ZNF291, AA001504
  Average level: −0.6362
